The values that follow come from PubChem BioAssay (NCI).

“And” between values parts separate entries of the source, which are not always exact repeats. Equal values may be shown once.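 A five-concentration, 48-hour dose response in 96-well plates underlies each endpoint, interpolated linearly between surrounding concentrations. The concentration for 50% growth inhibition is given as GI50. At the TGI there is no net growth.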

Assay in all cases: DTP human tumour cell line panel, 48 h
Experiment [1] has as its system 786-0 renal.
The subject of experiment [2] is A549 NSCLC.
For experiment [3], the system named is CCRF-CEM leukemia.
In experiment [4] the test system is HCT-116 colon.
Experiment [5] relates to HOP-62 NSCLC.
For experiment [6], the system named is SF-268 CNS.
Experiment [7] deals with UACC-257 melanoma.
Experiment [8] relates to SK-MEL-5 melanoma.
Experiment [9] relates to HS 578T breast.

In general, TGI refers to the concentration at which net growth stops. A low value points to more potent growth arrest. Regarding `COc1ccc(-c2cc(=O)c3ccc(O)cc3o2)c(OC)c1OC`, the TGI in experiment [1], in [2], in [3], in [4], in [5] and in experiment [6] was over 100 µM each time. The molecule also yielded a total growth inhibition concentration (TGI) in experiment [7] of over 100 µM.
On to `CSc1ccc(/C=C2\CN(C)C/C(=C\c3ccc(SC)cc3)C2=O)cc1`, for which the TGI in [1], in experiment [2], in experiment [3], in experiment [4], in experiment [5] and in [6] was over 100 µM each time. Besides, the concentration for total growth inhibition (TGI) in experiment [8] and in [7] was over 100 µM throughout.
Take `CC1(C)OC(=O)C(=Cc2ccc(O)cc2)C(=O)O1`: the TGI in [1], in [2], in [3], in experiment [4], in experiment [5] and in experiment [6] was over 100 µM throughout. The TGI in experiment [8] and in [7] was over 100 µM throughout.
Consider `O=[S@@]1Nc2ccc(Br)cc2S1`, for which the TGI in [1], in experiment [2], in experiment [3], in experiment [4], in [6] and in [8] was over 100 µM each time. In [7], this molecule came in with a TGI of over 100 µM.
For the molecule `COc1cc2cnc3c4cc(OC(C)C)c(OC)cc4ccc3c2cc1OC`, the TGI in experiment [1], in [2], in experiment [3], in [4], in experiment [5] and in [6] was over 100 µM in each case. For the same molecule, the TGI in [8] and in [7] was over 100 µM throughout.
`CC(=O)C(CN(C(C)C)C(C)C)C(c1ccccc1)c1c(O)c2ccccc2oc1=O` (stereo not given): the TGI in experiment [1], in experiment [2], in experiment [3], in experiment [4], in experiment [5] and in [6] was over 100 µM throughout. Further, the concentration for total growth inhibition (TGI) in [8] and in [7] was over 100 µM throughout.
On to `O=C(N/C(=C\c1cc(Cl)ccc1Cl)c1nc2[nH]c(=S)[nH]c(=O)c2[nH]1)c1ccccc1`, for which the TGI was 32.2 µM in [1]; over 100 µM in experiment [2]; 69.7 µM in experiment [3]; 21.3 µM in experiment [4]; over 100 µM in experiment [5]; over 100 µM in experiment [6]. Further, the TGI in experiment [8] is over 100 µM.
Regarding `CCOC(=O)C(Sc1ccccc1)c1c(OC)cc(=O)oc1/C=[N+](/[O-])c1ccc(N(C)C)cc1` (stereo not given), the TGI in experiment [1] is 42.4 µM; in [2], over 100 µM; in experiment [3] it was 15.4 µM; in experiment [5], over 100 µM; in [6], over 100 µM; in experiment [8] it was 44.9 µM. This molecule also had a concentration for total growth inhibition (TGI) in [7] of 28.7 µM.
For the molecule `CC1=C(C(=O)Nc2ccccc2C)C(c2ccco2)C(C(=O)Nc2ccccc2C)=C(C)N1C`, the total growth inhibition concentration (TGI) in experiment [1], in [2], in experiment [3], in experiment [4], in experiment [5] and in [6] was over 100 µM throughout. The concentration for total growth inhibition (TGI) in [8] and in [7] was over 100 µM throughout.
In the case of `CC(=O)NC1=C(NCC(C)(C)C)C(=O)c2ccccc2C1=O`, the TGI in experiment [1], in [2], in [3], in experiment [4], in experiment [5] and in experiment [6] was over 100 µM in each case. For the same molecule, the concentration for total growth inhibition (TGI) in [8] and in experiment [7] was over 100 µM in each case.
For `COc1ccc(-n2/c(=N/C(=S)N(C)C)ss/c2=N\C(=S)N(C)C)cc1`, the total growth inhibition concentration (TGI) in experiment [1], in [2], in [4], in [5], in experiment [6] and in experiment [7] was over 100 µM throughout.
In the case of `CN(CC(=O)O)S(=O)(=O)c1ccc2ccccc2c1`, the total growth inhibition concentration (TGI) in experiment [1], in experiment [2], in [3], in [6], in experiment [8] and in [7] was over 100 µM throughout.
As usually defined, the GI50 is the concentration at which growth is held to half of that of the control. On to `COC(=O)[C@@H](C)C[C@H](Cc1ccc(F)cc1)NC(=O)c1csc([C@@H](C[C@H](C(C)C)N(C)C(=O)[C@@H](NC(=O)[C@H]2CCCCN2C)C(C)C)OC(C)=O)n1`, for which the GI50 in [1] is 3.19 nM and 14.7 nM; in experiment [2], 2.77 nM and 10.7 nM; in [3], 0.973 nM and 6.39 nM; in [5], 1.87 nM and 10.2 nM; in experiment [9], 1.02 nM and 6.12 nM; in experiment [6], 4.41 nM and 9.23 nM. In [7], the GI50 was over 16.7 µM. The total growth inhibition concentration (TGI) in [1] is over 16.7 µM; in experiment [2] it was over 16.7 µM; in experiment [3], over 16.7 µM; in experiment [4] it was 0.225 µM; in experiment [5] it was over 16.7 µM; in experiment [6], over 16.7 µM. In experiment [7], the concentration for total growth inhibition (TGI) is over 16.7 µM.
Take `Nc1ccc(C(=O)N/C(=C\c2ccc3c(c2)OCO3)c2nc3[nH]c(=S)[nH]c(=O)c3[nH]2)cc1`: the TGI in [1], in [2], in experiment [3], in experiment [6] and in experiment [8] was over 100 µM in each case.
Take `CC(C)=CCCc1c(C)ccc2c1C(=O)C(=O)C(C(C)C)=C2`: the TGI in [1] is 7.07 µM; in experiment [2] it was over 22 µM; in experiment [3], 1.9 µM; in experiment [4], 6.55 µM; in experiment [6], 11.8 µM; in experiment [8] it was over 22 µM.
As for `COc1cccc(NC(=O)CC(=O)n2nc(C)c(N=Nc3ccccc3)c2C)c1`, the concentration for total growth inhibition (TGI) in experiment [1], in experiment [2], in experiment [4], in [5], in experiment [6] and in [8] was over 100 µM throughout. The molecule further came in with a TGI in [7] of over 100 µM.
